Reference: patent US20250154179A1, “GOLD (I) GEFITINIB DERIVATIVES AND PREPARATION METHOD AND APPLICATION THEREOF” (TONGJI HOSPITAL, TONGJI MEDICAL COLLEGE, HUAZHONG …, priority 2023, published 2025)

What was measured:
[1] = test system: lung cancer cell lines PC9, PC9GR and H1975; assay: CCK-8 proliferation / cell death experiment; assay type: cell-based
Protocol: (§1) The present invention further provides an application of a gold (I) Gefitinib derivative, mainly providing the study of the effect of Embodiment 8 (L1Au2 for short). […] L1Au2 is mainly used to treat lung cancer resistant to first- and second-generation EGFR-TKI. In vitro experiments on L1Au2 were conducted against Gefitinib-sensitive and Gefitinib-resistant lung cancer. […] The cell lines used in the experiment are internationally universal lung cancer tumor cell lines: Gefitinib-sensitive lung cancer cell line PC9, and Gefitinib-resistant cell lines PC9GR and H1975. […] See FIG. 3 for the effect diagram of a specific product.

[2] = test system: lung cancer cell lines PC9, PC9GR and H1975; assay: plate cloning (colony formation) experiment; assay type: cell-based
Protocol: as §1

[3] = test system: Gefitinib-resistant lung cancer cells; assay: mitochondrial damage, oxidative stress and ferroptosis in resistant cells; assay type: cell-based
Protocol: as §1

lung cancer cells [4] = assay: Annexin V-FITC/PI double staining apoptosis assay; assay type: cell-based
Protocol: as §1

[5] = test system: drug-resistant subcutaneous tumors; assay: subcutaneous drug-resistant tumor model in nude mice; details: in vivo and in vitro
Protocol: as §1

GPX4 protein = target: T1, GPX4 protein (Homo sapiens, UniProt P36969); assay: GPX4 protein degradation; assay type: cell-based; details: by promoting autophagy and inducing GPX4 ubiquitination
T1 construct: endogenous in cells; host or cells: Gefitinib-resistant lung cancer cells (PC9GR / H1975; not specified which)
T1 sequence (P36969 1-197): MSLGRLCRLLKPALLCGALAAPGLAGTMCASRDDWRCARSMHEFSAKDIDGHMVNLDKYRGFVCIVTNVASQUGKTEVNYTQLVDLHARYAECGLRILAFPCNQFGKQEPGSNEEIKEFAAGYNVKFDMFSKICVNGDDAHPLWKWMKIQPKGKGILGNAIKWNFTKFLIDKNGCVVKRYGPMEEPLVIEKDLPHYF
Protocol: as §1

lung cancer cells [6] = assay: Transwell migration experiment; assay type: cell-based
Protocol: as §1

EGFR-related pathway = EGFR-related pathway activation; assay type: cell-based
Protocol: as §1

thioredoxin reductase = thioredoxin reductase activity; assay type: biochemical
Protocol: as §1

Structure (SMILES): COc1cc2ncnc(Nc3ccc(F)c(Cl)c3)c2cc1OCCCC#[C][Au][PH]12CN3CN(CN(C3)C1)C2 [Embodiment 8]
- lung cancer cell death over time (FIG. 2A) ([1]; CCK8): induces lung cancer cell death in a time-dependent manner
- inhibition of proliferation ([1]; CCK-8 and plate cloning, PC9, PC9GR, H1975): obvious effect on inhibiting proliferation
- colony formation ability of lung cancer cells (FIG. 2B) [2]: significantly inhibits the colony formation ability
- intracellular mitochondrial damage [3]: induces intracellular mitochondrial damage
- intracellular oxidative stress level [3]: severely induces elevation of the intracellular oxidative stress level
- ferroptosis ([3]; Gefitinib-resistant lung cancer cells): resulting in ferroptosis
- apoptosis of lung cancer cells (FIG. 2D) (lung cancer cells [4]): significantly promoted the apoptosis
- performance compared with Gefitinib against drug-resistant tumors [5]: performs better than Gefitinib
- GPX4 protein level (GPX4 protein): degrades GPX4 protein
- migration ability of lung cancer cells (FIG. 2C) (lung cancer cells [6]): significantly inhibited the migration ability
- EGFR-related pathway activation (EGFR-related pathway): inhibits EGFR-related pathway activation
- thioredoxin reductase activity (thioredoxin reductase): inhibits thioredoxin reductase activity
